Consider 23 compounds from patent publication US20140045823A1 (Neurocrine Biosciences, Inc., priority 2012, published 2014).

The experiment has as its target T1, human GPR119 (Homo sapiens, UniProt Q8TDV5).
T1 construct: expression vector for human GPR119 cDNA (Acc. No. NP_848566); expressed in transfected cells; Min-6/hGPR119
T1 sequence (Q8TDV5 1-335): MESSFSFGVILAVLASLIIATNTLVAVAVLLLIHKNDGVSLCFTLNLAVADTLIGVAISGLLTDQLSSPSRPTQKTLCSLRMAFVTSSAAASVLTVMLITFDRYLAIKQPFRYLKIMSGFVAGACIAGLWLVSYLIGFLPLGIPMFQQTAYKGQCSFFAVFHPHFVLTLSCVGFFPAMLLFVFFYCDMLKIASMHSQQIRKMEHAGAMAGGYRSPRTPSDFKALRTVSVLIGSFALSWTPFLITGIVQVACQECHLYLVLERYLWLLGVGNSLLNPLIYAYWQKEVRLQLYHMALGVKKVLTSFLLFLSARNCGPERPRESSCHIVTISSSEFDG
The experiment in a line: AlphaScreen cAMP assay in MIN6 cells stably transfected with human GPR119. The following applies: Min-6/hGPR119 cells, 45 min at room temperature. The class given is cell-based. On the procedure:
The compounds of formula I according to the invention modulate the activity of the G-protein-coupled receptor GPR119. The effect of the compounds on the activation of GPR119 and on the stimulation of intracellular cAMP concentration is determined using the AlphaScreen cAMP Assay Kit (Cat. No. #6760625R) made by PerkinElmer.
MIN6 cells [Miyazaki J et al. Endocrinology. 1990 July; 127(1):126-32] are stably transfected with an expression vector for human GPR119 cDNA (Acc. No. NP_848566). Min-6/hGPR119 cells are cultured in DMEM, 10% FBS, 50 μM β-mercaptoethanol, 0.3 mg/mL Geniticin, 2 mM GlutaMAX at 37° C. 5% CO2. For the assay, the cells are seeded in Optiplates (white, 384-well, 160 W—barcoded, TC, sterile with lid, Cat. No. #6007688 (Perkin Elmer); 10000 cells/well; 50 μl). The plates covered with lids are then incubated for 24 hours at 37° C./5% CO2. After the medium is aspirated from the wells completely, 10 μl of the test compound are added, the compounds are diluted using stimulating buffer (140 mM NaCl, 3.6 mM KCl, 0.5 mM NaH2PO4, 0.5 mM MgSO4, 1.5 mM CaCl2, 10 mM Hepes, 5 mM NaHCO3; pH 7.4. 0.5 mM IBMX and 0.1% BSA, the final DMSO concentration is 1%). After 45 minutes incubation at room temperature (approx. 20° C.), the cAMP concentrations are determined using the AlphaScreen cAMP Assay Kit (Cat. No. #6760625R from PerkinElmer).
For orientation: Bead proximity is the source of the signal in Alpha formats.
Usually EC50 stands for the concentration that produces a half-maximal response. A higher EC50 goes with a less potent agent. `CCc1nccn1-c1ncc(C(=O)N(C2CC2)C2CCN(C(=O)OC(C)C)CC2)cn1` [Example 52, 4-{Cyclopropyl-[2-(2-ethyl-imidazol-1-yl)-pyrimidine-5-carbonyl]-amino}-piperidine-1-carboxylic acid isopropyl ester] showed an EC50 of 211 nM.
The value for `CC(C)(C)OC(=O)N1CCC(N(C(=O)c2cnc(-c3ccc(C(=O)NCC4CCOCC4)c(F)c3)nc2)C2CC2)CC1` [Example 128, 4-[Cyclopropyl-(2-{3-fluoro-4-[(tetrahydro-pyran-4-ylmethyl)-carbamoyl]-phenyl}-pyrimidine-5-carbonyl)-amino]-piperidine-1-carboxylic acid tert-butyl ester] was 156 nM; that for `COC(C)CN(C)C(=O)c1ccc(-c2ncc(C(=O)N(C3CC3)C3CCN(C(=O)OC(C)(C)C)CC3)cn2)c(F)c1` (centres unmarked) [Example 157, 4-[Cyclopropyl-(2-{2-fluoro-4-[(2-methoxy-propyl)-methyl-carbamoyl]-phenyl}-pyrimidine-5-carbonyl)-amino]-piperidine-1-carboxylic acid tert-butyl ester] was 401 nM.
Compound `CCNC(=O)c1ccc(-c2nc(C(=O)N(C3CC3)C3CCN(C(=O)OC(C)(C)C)CC3)co2)cc1` [Example 26, 4-{Cyclopropyl-[2-(4-ethylcarbamoyl-phenyl)-oxazole-4-carbonyl]-amino}-piperidine-1-carboxylic acid tert-butyl ester] had an EC50 of 360 nM.
The value for `CN(CC#N)C(=O)c1ccc(-c2ncc(C(=O)N(C3CC3)C3CCN(C(=O)OC(C)(C)C)CC3)cn2)cc1` [Example 221, 4-({2-[4-(Cyanomethyl-methyl-carbamoyl)-phenyl]-pyrimidine-5-carbonyl}-cyclopropyl-amino)-piperidine-1-carboxylic acid tert-buyl ester] was 110 nM; that for `Cc1nccn1-c1ncc(C(=O)N(C2CC2)C2CCN(C(=O)OC3(C)CC3)CC2)cn1` [Example 55, 4-{Cyclopropyl-[2-(2-methyl-imidazol-1-yl)-pyrimidine-5-carbonyl]-amino}-piperidine-1-carboxylic acid 1-methyl-cyclopropyl ester] was 106 nM; that for `CC(C)(C)OC(=O)N1CCC(N(C(=O)c2ncc(-c3cnco3)cn2)C2CC2)CC1` [Example 7, 4-[Cyclopropyl-(5-oxazol-5-yl-pyrimidine-2-carbonyl)-amino]-piperidine-1-carboxylic acid tert-butyl ester] was 1200 nM.
The value for `COC[C@@H]1CCCN1C(=O)c1ccc(-c2ncc(C(=O)N(C3CC3)C3CCN(C(=O)OC(C)(C)C)CC3)cn2)cc1` [Example 204, 4-(Cyclopropyl-{2-[4-(2-methoxymethyl-pyrrolidine-1-carbonyl)-phenyl]-pyrimidine-5-carbonyl}-amino)-piperidine-1-carboxylic acid tert-butyl ester] was 302 nM.
As to `COCc1cccc(NC(=O)c2ccc(-c3ncc(C(=O)N(C4CC4)C4CCN(C(=O)OC(C)(C)C)CC4)cn3)cc2F)c1` [Example 156, 4-(Cyclopropyl-{2-[3-fluoro-4-(3-methoxymethyl-phenylcarbamoyl)-phenyl]-pyrimidine-5-carbonyl}-amino)-piperidine-1-carboxylic acid tert-butyl ester], the EC50 worked out at 114 nM.
The compound `Cc1cn(-c2ncc(C(=O)N(C3CC3)C3CCN(C(=O)OC(C)(C)C)CC3)cn2)c(C)n1` [Example 98, 4-{Cyclopropyl-[2-(2,4-dimethyl-imidazol-1-yl)-pyrimidine-5-carbonyl]-amino}-piperidine-1-carboxylic acid tert-butyl ester] had an EC50 of 71 nM.
The value for `Cc1ccc(-c2ncc(C(=O)N(C3CC3)C3CCN(C(=O)OC(C)(C)C)CC3)cn2)cn1` [Example 89, 4-{Cyclopropyl-[2-(6-methyl-pyridin-3-yl)-pyrimidine-5-carbonyl]-amino}-piperidine-1-carboxylic acid tert-butyl ester] was 240 nM.
The value for `CN(Cc1cccnc1)C(=O)c1ccc(-c2ncc(C(=O)N(C3CC3)C3CCN(C(=O)OC(C)(C)C)CC3)cn2)cc1F` [Example 127, 4-(Cyclopropyl-{2-[3-fluoro-4-(methyl-pyridin-3-ylmethyl-carbamoyl)-phenyl]-pyrimidine-5-carbonyl}-amino)-piperidine-1-carboxylic acid tert-butyl ester] was 108 nM.
The value for `CCc1nccn1-c1ncc(C(=O)N(C2CC2)C2CCN(C(=O)OC(C)(C)C)CC2)cn1` [Example 97, 4-{Cyclopropyl-[2-(2-ethyl-imidazol-1-yl)-pyrimidine-5-carbonyl]-amino}-piperidine-1-carboxylic acid tert-butyl ester] was 59 nM.
The compound `CC(C)(C)OC(=O)N1CCC(N(C(=O)c2cnc(-c3ccc(C(=O)N4CC(F)(F)C4)cc3)nc2)C2CC2)CC1` [Example 187, 4-(Cyclopropyl-{2-[4-(3,3-difluoro-azetidine-1-carbonyl)-phenyl]-pyrimidine-5-carbonyl}-amino)-piperidine-1-carboxylic acid tert-butyl ester] displayed a concentration giving a half-maximal response (EC50) of 122 nM.
The value for `CCNC(=O)c1ccc(-c2ncc(C(=O)N(C3CC3)C3CCN(C(=O)OC(C)(C)C)CC3)cn2)cc1` [Example 86, 4-{Cyclopropyl-[2-(4-ethylcarbamoyl-phenyl)-pyrimidine-5-carbonyl]-amino}-piperidine-1-carboxylic acid tert-butyl ester] was 171 nM; that for `Cc1noc(C2CCN(C(=O)c3ccc(-c4ncc(C(=O)N(C5CC5)C5CCN(C(=O)OC(C)(C)C)CC5)cn4)cc3F)C2)n1` (centres unmarked) [Example 104, 4-[Cyclopropyl-(2-{3-fluoro-4-[3-(3-methyl-[1,2,4]oxadiazol-5-yl)-pyrrolidine-1-carbonyl]-phenyl}-pyrimidine-5-carbonyl)-amino]-piperidine-1-carboxylic acid tert-butyl ester] was 180 nM.
The value for `CC(C)(C)OC(=O)N1CCC(N(C(=O)c2cnc(-c3ccc(C#N)cc3)o2)C2CC2)CC1` [Example 35, 4-{[2-(4-Cyano-phenyl)-oxazole-5-carbonyl]-cyclopropyl-amino}-piperidine-1-carboxylic acid tert-butyl ester] was 136 nM; that for `CC(C)(C)OC(=O)N1CCC(N(C(=O)c2cnc(-c3ccc(C(=O)NCc4ccncc4)cc3)nc2)C2CC2)CC1` [Example 241, 4-[Cyclopropyl-(2-{4-[(pyridin-4-ylmethyl)-carbamoyl]-phenyl}-pyrimidine-5-carbonyl)-amino]-piperidine-1-carboxylic acid tert-butyl ester] was 245 nM.
Consider `CC(C)(C)OC(=O)N1CCC(N(C(=O)c2cnc(-c3ccc(C(=O)NC[C@H]4CCCC[C@H]4O)c(F)c3)nc2)C2CC2)CC1` (stereo in doubt) [Example 168, 4-[Cyclopropyl-(2-{3-fluoro-4-[(2-hydroxy-cyclohexylmethyl)-carbamoyl]-phenyl}-pyrimidine-5-carbonyl)-amino]-piperidine-1-carboxylic acid tert-butyl ester], for which the EC50 was found to be 261 nM.
The value for `CC(C)(C)OC(=O)N1CCC(N(C(=O)c2cnc(-c3ccc(CC(=O)NC4CCOCC4)cc3)nc2)C2CC2)CC1` [Example 213, 4-[Cyclopropyl-(2-{4-[(tetrahydro-pyran-4-ylcarbamoyl)-methyl]-phenyl}-pyrimidine-5-carbonyl)-amino]-piperidine-1-carboxylic acid tert-butyl ester] was 521 nM; that for `CC(C)(C)OC(=O)N1CCC(N(C(=O)c2cc(-c3ccc(C#N)c(F)c3)on2)C2CC2)CC1` [Example 40, 4-{[5-(4-Cyano-3-fluoro-phenyl)-isoxazole-3-carbonyl]-cyclopropyl-amino}-piperidine-1-carboxylic acid tert-butyl ester] was 7 nM; that for `CC(C)(C)OC(=O)N1CCC(N(C(=O)c2cnc(-c3cnco3)o2)C2CC2)CC1` [Example 33, 4-[([2,5′]Bioxazolyl-5-carbonyl)-cyclopropyl-amino]-piperidine-1-carboxylic acid tert-butyl ester] was 639 nM.
The value for `CC(C)(C)OC(=O)N1CCC(N(C(=O)c2cnc(-c3ccc(S(N)(=O)=O)cc3)nc2)C2CC2)CC1` [Example 88, 4-{Cyclopropyl-[2-(4-sulfamoyl-phenyl)-pyrimidine-5-carbonyl]-amino}-piperidine-1-carboxylic acid tert-butyl ester] was 349 nM.
